Patent US7078195B2, “Antibiotics AA-896” (Wyeth Holdings Corporation, priority 2001, dated 2006)

Assays:
[1] = test system: Staphylococcus aureus Smith; assay: Acute lethal infection in mice; type: in vivo
Method: (§1) The antibacterial efficacy of AA-896-A1 in vivo against acute lethal infection in mice is established by infecting mice with Staphylococcus aureus Smith or Streptococcus pneumoniae. The mice are treated with AA-896-A1.

Streptococcus pneumoniae = assay: Acute lethal infection in mice; type: in vivo
Method: as §1

E. faecalis GC 242 = assay: Broth dilution MIC; type: cell-based; settings: Mueller-Hinton broth, 18 hours at 35° C.
Method: (§2) The in vitro antibacterial activity of AA-896-A1, AA-896-A2, AA-896-A3, AA-896-A4, AA-896-A5, AA-896-B1, AA-896-B2, AA-896-B3, AA-896-B4, AA-896-B5, AA-896-B6, AA-896-B7, AA-896-C1, AA-896-C2, AA-896-C3, AA-896-C4, AA-896-D1, AA896-D2 and AA-896-D3 is determined against a spectrum of Gram-positive and Gram-negative bacteria by a standard broth dilution method. Serial dilution of the compounds are made in Mueller-Hinton broth and inoculated with a bacterial suspension. The lowest concentration of compound that inhibited the growth of a bacterial strain after 18 hours of incubation at 35° C. is reported as the minimal inhibitory concentration (MIC) for that strain.

E. coli GC 4560 = assay: Broth dilution MIC; type: cell-based; settings: Mueller-Hinton broth, 18 hours at 35° C.
Method: as §2

E. faecalis GC 4555 = assay: Broth dilution MIC; type: cell-based; settings: Mueller-Hinton broth, 18 hours at 35° C.
Method: as §2

CNS GC 4538 = assay: Broth dilution MIC; type: cell-based; settings: Mueller-Hinton broth, 18 hours at 35° C.
Method: as §2

E. faecalis GC 842 = assay: Broth dilution MIC; type: cell-based; settings: Mueller-Hinton broth, 18 hours at 35° C.
Method: as §2

P. aeruginosa GC 2214 = assay: Broth dilution MIC; type: cell-based; settings: Mueller-Hinton broth, 18 hours at 35° C.
Method: as §2

S. aureus GC 1131 = assay: Broth dilution MIC; type: cell-based; settings: Mueller-Hinton broth, 18 hours at 35° C.
Method: as §2

E. coli GC 2203 = assay: Broth dilution MIC; type: cell-based; settings: Mueller-Hinton broth, 18 hours at 35° C.
Method: as §2

E. cloacae GC 3783 = assay: Broth dilution MIC; type: cell-based; settings: Mueller-Hinton broth, 18 hours at 35° C.
Method: as §2

K. pneumoniae GC 4534 = assay: Broth dilution MIC; type: cell-based; settings: Mueller-Hinton broth, 18 hours at 35° C.
Method: as §2

S. aureus GC 2216 = assay: Broth dilution MIC; type: cell-based; settings: Mueller-Hinton broth, 18 hours at 35° C.
Method: as §2

E. coli GC 4559 = assay: Broth dilution MIC; type: cell-based; settings: Mueller-Hinton broth, 18 hours at 35° C.
Method: as §2

S. aureus GC 4536 = assay: Broth dilution MIC; type: cell-based; settings: Mueller-Hinton broth, 18 hours at 35° C.
Method: as §2

CNS GC 4537 = assay: Broth dilution MIC; type: cell-based; settings: Mueller-Hinton broth, 18 hours at 35° C.
Method: as §2

P. rettgeri GC 4530 = assay: Broth dilution MIC; type: cell-based; settings: Mueller-Hinton broth, 18 hours at 35° C.
Method: as §2

E. coli GC 3226 = assay: Broth dilution MIC; type: cell-based; settings: Mueller-Hinton broth, 18 hours at 35° C.
Method: as §2

S. marcescens GC 4077 = assay: Broth dilution MIC; type: cell-based; settings: Mueller-Hinton broth, 18 hours at 35° C.
Method: as §2

P. aeruginosa GC 4532 = assay: Broth dilution MIC; type: cell-based; settings: Mueller-Hinton broth, 18 hours at 35° C.
Method: as §2

CNS GC 4547 = assay: Broth dilution MIC; type: cell-based; settings: Mueller-Hinton broth, 18 hours at 35° C.
Method: as §2

M. morganii GC 4531 = assay: Broth dilution MIC; type: cell-based; settings: Mueller-Hinton broth, 18 hours at 35° C.
Method: as §2

E. faecalis GC 2242 = assay: Broth dilution MIC; type: cell-based; settings: Mueller-Hinton broth, 18 hours at 35° C.
Method: as §2

Row | Antimicrobial Activity (MIC) (E. coli GC 4560) | Antimicrobial Activity (MIC) (E. faecalis GC 4555) | Antimicrobial Activity (MIC) (CNS GC 4538) | Antimicrobial Activity (MIC) (E. faecalis GC 842) | Antimicrobial Activity (MIC) (P. aeruginosa GC 2214) | Antimicrobial Activity (MIC) (S. aureus GC 1131) | Antimicrobial Activity (MIC) (E. coli GC 2203) | Antimicrobial Activity (MIC) (E. cloacae GC 3783) | Antimicrobial Activity (MIC) (K. pneumoniae GC 4534) | Antimicrobial Activity (MIC) (S. aureus GC 2216) | Antimicrobial Activity (MIC) (E. coli GC 4559) | Antimicrobial Activity (MIC) (S. aureus GC 4536) | Antimicrobial Activity (MIC) (CNS GC 4537) | Antimicrobial Activity (MIC) (P. rettgeri GC 4530) | Antimicrobial Activity (MIC) (E. coli GC 3226) | Antimicrobial Activity (MIC) (S. marcescens GC 4077) | Antimicrobial Activity (MIC) (P. aeruginosa GC 4532) | Antimicrobial Activity (MIC) (CNS GC 4547) | Antimicrobial Activity (MIC) (M. morganii GC 4531) | Antimicrobial Activity (MIC) (E. faecalis GC 2242) | Molecule | other results
1 | <=0.06 μg/ml | >64 µg/mL | 64 µg/mL | >64 µg/mL | 64 µg/mL | >64 µg/mL | 64 µg/mL | 8 µg/mL | 32 µg/mL | >64 µg/mL | 32 µg/mL | >64 µg/mL | >64 µg/mL | >64 µg/mL | 64 µg/mL | >64 µg/mL | >64 µg/mL | >64 µg/mL | >64 µg/mL | >64 µg/mL | COC1C(OC(C(NCCCNC(=O)C(NC(=O)C(NC(=O)NC(C(=O)O)C(C)C)C2CCNC(=N)N2)C(OC(=O)CCCCC(C)C)C(C)C)C(=O)O)C2OC(n3ccc(=O)[nH]c3=O)C(O)C2O)OC(CN)C1O [AA-896-B6, 5-O-[5-Amino-5-deoxy-2-O-methyl-β-D-ribofuranosyl]-6-[[3-[2-[2-[[(1-carboxy-2-methyl-propyl)carbamoyl]amino]-2-(hexahydro-2-iminopyrimidin-4-yl)acetamido]-4-methyl-3-[(6-methylheptanoyl)oxy]pentanamido]propyl]amino]-1,6-dideoxy-1-(3,4-dihydro-2,4-dioxopyrimidin-1(2H)-yl)-β-D-heptofuranuronic acid] | –
2 | 0.5 µg/mL | >32 µg/mL | >32 µg/mL | >32 µg/mL | 16 µg/mL | >32 µg/mL | 16 µg/mL | 8 µg/mL | >32 µg/mL | >32 µg/mL | 32 µg/mL | >32 µg/mL | >32 µg/mL | >32 µg/mL | 32 µg/mL | >32 µg/mL | 32 µg/mL | >32 µg/mL | >32 µg/mL | >32 µg/mL | CC(C)C(NC(=O)NC(C(=O)NC(C(=O)NCCCNC(C(=O)O)C(OC1CC(O)C(CN)O1)C1OC(n2ccc(=O)[nH]c2=O)C(O)C1O)C(O)C(C)C)C1CCNC(=N)N1)C(=O)O [AA-896-C3, 5-O-[5-Amino-2,5-dideoxy-β-D-ribofuranosyl]-6-[[3-[2-[2-[[(1-carboxy-2-methylpropyl)-carbamoyl]amino]-2-(hexahydro-2-iminopyrimidin-4-yl)acetamido]-3-hydroxy-4-methyl-pentanamido]propyl]amino]-1,6-dideoxy-1-(3,4-dihydro-2,4-dioxopyrimidin-1(2H)-yl)-β-D-heptofuranuronic acid] | –
3 | 0.25 µg/mL | >32 µg/mL | >32 µg/mL | >32 µg/mL | 32 µg/mL | >32 µg/mL | 32 µg/mL | >32 µg/mL | >32 µg/mL | >32 µg/mL | >32 µg/mL | >32 µg/mL | >32 µg/mL | >32 µg/mL | 32 µg/mL | >32 µg/mL | >32 µg/mL | >32 µg/mL | >32 µg/mL | >32 µg/mL | CC(C)CC(NC(=O)C(NC(=O)NC(C(=O)O)C(C)C)C1CCNC(=N)N1)C(=O)NCCCNC(C(=O)O)C(OC1CC(O)C(CN)O1)C1OC(n2ccc(=O)[nH]c2=O)C(O)C1O [AA-896-D3, 5-O-[5-Amino-2,5-dideoxy-β-D-ribofuranosyl]-6-[[3-[2-[2-[[(1-carboxy-2-methylpropyl)-carbamoyl]amino]-2-(hexahydro-2-iminopyrimidin-4-yl)acetamido]-4-methylpentanamido]-propyl]amino]-1,6-dideoxy-1-(3,4-dihydro-2,4-dioxopyrimidin-1(2H)-yl)-β-D-heptofuran-uronic acid] | –

Row | Molecule | Antimicrobial Activity (MIC) (E. coli GC 4560) | Antimicrobial Activity (MIC) (E. faecalis GC 4555) | Antimicrobial Activity (MIC) (CNS GC 4538) | Antimicrobial Activity (MIC) (E. faecalis GC 842) | Antimicrobial Activity (MIC) (P. aeruginosa GC 2214) | Antimicrobial Activity (MIC) (S. aureus GC 1131) | Antimicrobial Activity (MIC) (E. coli GC 2203) | Antimicrobial Activity (MIC) (E. cloacae GC 3783) | Antimicrobial Activity (MIC) (K. pneumoniae GC 4534) | Antimicrobial Activity (MIC) (S. aureus GC 2216) | Antimicrobial Activity (MIC) (E. coli GC 4559) | Antimicrobial Activity (MIC) (S. aureus GC 4536) | Antimicrobial Activity (MIC) (CNS GC 4537) | Antimicrobial Activity (MIC) (P. rettgeri GC 4530) | Antimicrobial Activity (MIC) (E. coli GC 3226) | Antimicrobial Activity (MIC) (S. marcescens GC 4077) | Antimicrobial Activity (MIC) (P. aeruginosa GC 4532) | Antimicrobial Activity (MIC) (CNS GC 4547) | Antimicrobial Activity (MIC) (M. morganii GC 4531) | Antimicrobial Activity (MIC) (E. faecalis GC 2242) | other results
4 | 5-O-[5-Amino-5-deoxy-2-O-methyl-β-D-ribofuranosyl]-6-[[3-[3-[[13-(carbamimidoylhydroxy-amino)tridecanoyl]oxy]-2-[2-[[(1-carboxy-2-methylpropyl)carbamoyl]amino]-2-(hexahydro-2-iminopyrimidin-4-yl)acetamido]-4-methylpentanamido]propyl]amino]-1,6-dideoxy-1-(3,4-dihydro-2,4-dioxopyrimidin-1(2H)-yl)-β-D-heptofuranuronic acid [AA-896-A1] | <=0.03 μg/ml | 16 µg/mL | 1 µg/mL | 32 µg/mL | 16 µg/mL | 4 µg/mL | 16 µg/mL | 0.5 µg/mL | >32 µg/mL | 8 µg/mL | 32 µg/mL | 4 µg/mL | 2 µg/mL | >32 µg/mL | 8 µg/mL | >32 µg/mL | 32 µg/mL | 4 µg/mL | >32 µg/mL | – | ED50 range (95% confidence limit) [1]: 0.83 to 1.46 mg/kg; ED50 range (95% confidence limit) (Streptococcus pneumoniae): 8.0 to 16.0 mg/kg; Antimicrobial Activity (MIC) (E. faecalis GC 242): 32 µg/mL
